Measured values published in article PMC9502272, “A Metabolomics Approach for Predicting OATP1B-Type Transporter-Mediated Drug–Drug Interaction Liabilities” (Pharmaceutics, 2022).
Read-outs that look alike come from different tables or passages of the source.

Experiments:
[1] = biological target: T1, OATP1B-type transporters (Oatp1b2) (Mus musculus, UniProt Q9JJL3); test: Murine pharmacokinetic study: influence of OATP1B inhibitors on plasma CDCA-24G in wild-type mice; type: in vivo; conditions: rifampin 20 mg/kg i.v. or paclitaxel 10 mg/kg i.v.
T1 construct: was performed in wild-type mice and Oatp1b2(−/−) mice; from tissue; host or cells: living wild-type mice (DBA/1LacJ or FVB background); hepatic transporter in vivo
T1 sequence (Q9JJL3 1-689): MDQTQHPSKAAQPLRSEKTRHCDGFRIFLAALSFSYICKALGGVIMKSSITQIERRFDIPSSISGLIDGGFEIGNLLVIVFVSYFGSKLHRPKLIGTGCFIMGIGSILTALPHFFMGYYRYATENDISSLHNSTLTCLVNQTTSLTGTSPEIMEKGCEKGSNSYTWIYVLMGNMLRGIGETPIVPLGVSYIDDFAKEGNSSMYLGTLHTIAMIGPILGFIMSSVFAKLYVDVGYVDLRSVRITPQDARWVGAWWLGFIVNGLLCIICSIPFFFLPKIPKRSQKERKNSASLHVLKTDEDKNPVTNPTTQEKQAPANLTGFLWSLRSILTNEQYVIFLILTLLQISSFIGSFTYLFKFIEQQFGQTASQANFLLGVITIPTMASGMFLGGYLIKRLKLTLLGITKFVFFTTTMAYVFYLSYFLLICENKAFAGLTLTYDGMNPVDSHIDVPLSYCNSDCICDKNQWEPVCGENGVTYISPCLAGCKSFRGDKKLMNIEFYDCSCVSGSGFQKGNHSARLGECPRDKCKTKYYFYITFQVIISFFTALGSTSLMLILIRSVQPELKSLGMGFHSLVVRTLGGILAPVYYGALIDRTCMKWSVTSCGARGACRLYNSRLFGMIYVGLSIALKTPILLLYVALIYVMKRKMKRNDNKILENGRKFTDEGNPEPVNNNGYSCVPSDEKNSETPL
Protocol: In these experiments, serial whole blood samples were collected in heparinized tubes immediately prior to drug administration (pre-dose) and at 0.25, 0.5, 1, 2, and 4 h after administration from the submandibular vein for the initial three time-points, from the retro-orbital sinus vein for the subsequent two time-points, and by cardiac puncture at the terminal time-point. Whole blood samples were centrifuged at 11,000 rpm for 5 min; then, the plasma supernatants were collected and stored at −80 °C until analysis by a validated method based on LC-MS/MS.
An Accucore aQ column (50 × 2.1 mm, dp = 2.6 μm; Thermo Fisher Scientific) was protected by a C18 AQUASIL guard cartridge (2.1 mm × 10 mm, dp = 3 μm; Thermo Fisher Scientific). The injection volume of sample was 5.0 μL. The temperature of the autosampler rack was 4 °C, and the temperature of the column was maintained at 20 °C. The mobile phase was composed of solvent A (2 mmol ammonium acetate in water) and solvent B (100% methanol), and the total run time was 4.6 min. […]
(§1) Pharmacokinetic parameters were derived from non-compartmental analysis using Phoenix WinNonlin version 8.0 (Certara, Princeton, NJ, USA). The peak plasma concentration (Cmax) was determined by visual inspection of the data from the concentration–time curves. […]

OATP1B [2] = conditions: patients, paclitaxel (Taxol) 1 h i.v. infusion, 50 or 100 mg/m^2; dose-dependent
Protocol: An Accucore aQ column (50 × 2.1 mm, dp = 2.6 μm; Thermo Fisher Scientific) was protected by a C18 AQUASIL guard cartridge (2.1 mm × 10 mm, dp = 3 μm; Thermo Fisher Scientific). The injection volume of sample was 5.0 μL. The temperature of the autosampler rack was 4 °C, and the temperature of the column was maintained at 20 °C. The mobile phase was composed of solvent A (2 mmol ammonium acetate in water) and solvent B (100% methanol), and the total run time was 4.6 min. The gradient conditions were as follows: 0–0.5 min, 45% B; 0.5–2.0 min, 45 to 90%, 2.0–4.0 min, 90% B; 4.0–4.6 min, 45% B, delivered at a flow rate of 0.4 mL/min. The MS assay setting with the positive voltage applied to the ESI capillary was set at 3791 V, and the capillary temperatures was 335 °C with a vaporizer temperature of 350 °C. Argon was used as the collision gas at a pressure of 1.5 mTorr. […] The lower limit of quantitation (LLOQ) for both analytes was determined to be 0.5 ng/mL. […]
as §1

OATP1B3 = test system: OATP1B3; design: method as in ref PMIDs of Table S2 (18321482, 35456528, 28612269, 10997930, 11129729, 22808947, 12844327); conditions: ref PMIDs of Table S2 (18321482, 35456528, 28612269, 10997930, 11129729, 22808947, 12844327); cited from earlier work
[3] = design: method as in ref PMIDs of Table S2 (18321482, 35456528, 28612269, 10997930, 27796539, 23299792, 11129729, 22808947, 12844327); conditions: ref PMIDs of Table S2 (18321482, 35456528, 28612269, 10997930, 27796539, 23299792, 11129729, 22808947, 12844327); cited from earlier work
Oatp1a/1b = test: Baseline plasma biomarker levels in Oatp1a/1b(−/−) cluster-knockout vs wild-type mice; type: in vivo, mouse
Protocol: Plasma concentrations of levels of CDCA-24G and glycochenodeoxycholate-3-sulfate (GCDCA-S) were determined using LC-MS/MS using a Vanquish UHPLC coupled with a Quantiva triple quadrupole mass spectrometer (Thermo Fisher Scientific, Waltham, MA, USA). An Accucore aQ column (50 × 2.1 mm, dp = 2.6 μm; Thermo Fisher Scientific) was protected by a C18 AQUASIL guard cartridge (2.1 mm × 10 mm, dp = 3 μm; Thermo Fisher Scientific). The injection volume of sample was 5.0 μL. The temperature of the autosampler rack was 4 °C, and the temperature of the column was maintained at 20 °C. The mobile phase was composed of solvent A (2 mmol ammonium acetate in water) and solvent B (100% methanol), and the total run time was 4.6 min. The gradient conditions were as follows: 0–0.5 min, 45% B; 0.5–2.0 min, 45 to 90%, 2.0–4.0 min, 90% B; 4.0–4.6 min, 45% B, delivered at a flow rate of 0.4 mL/min. The MS assay setting with the positive voltage applied to the ESI capillary was set at 3791 V, and the capillary temperatures was 335 °C with a vaporizer temperature of 350 °C. Argon was used as the collision gas at a pressure of 1.5 mTorr. Precursor molecular ions, and product ions were recorded for the confirmation and detection of GCDCA-S (528.4 > 448.3) and CDCA-24G (567.4 > 391.1), using [^2H5]-GCDCA-S (535.5 > 453.3) and [^2H5]-CDCA-24G (572.5 > 396.1) as respective internal standards. The lower limit of quantitation (LLOQ) for both analytes was determined to be 0.5 ng/mL. […]
Plasma concentrations of coproporphyrin I (CP-I) and III (CP-III) were determined similarly by LC-MS/MS. […] Precursor molecular ions and product ions were recorded for confirmation and detection of CP-I (655.4 > 596.4) and CP-III (655.4 > 596.3), using [^2H4]-CP-III (659.4 > 600.3) as the internal standard for both analytes. The LLOQ for both analytes were determined to be 1 ng/mL, and the within-run and between-run precisions as well as the accuracy were always within acceptable limits.

OATP1B [4] = test: Clinical study: OATP1B biomarkers in patients receiving cabazitaxel; type: in vivo, human; conditions: cabazitaxel 1 h i.v. infusion up to 25 mg/m^2
Text: Samples from patients with solid tumors were collected from 3 clinical studies conducted in accordance with the principles of the Declaration of Helsinki, and all study protocols were approved by Institutional Review Boards at either the National Cancer Institute (Bethesda, MD, USA) or the Erasmus Medical Center Cancer Institute (Rotterdam, The Netherlands). All patients provided written informed consent for their blood samples and medical information to be used for research purposes.
An Accucore aQ column (50 × 2.1 mm, dp = 2.6 μm; Thermo Fisher Scientific) was protected by a C18 AQUASIL guard cartridge (2.1 mm × 10 mm, dp = 3 μm; Thermo Fisher Scientific). The injection volume of sample was 5.0 μL. The temperature of the autosampler rack was 4 °C, and the temperature of the column was maintained at 20 °C. The mobile phase was composed of solvent A (2 mmol ammonium acetate in water) and solvent B (100% methanol), and the total run time was 4.6 min. The gradient conditions were as follows: 0–0.5 min, 45% B; 0.5–2.0 min, 45 to 90%, 2.0–4.0 min, 90% B; 4.0–4.6 min, 45% B, delivered at a flow rate of 0.4 mL/min. The MS assay setting with the positive voltage applied to the ESI capillary was set at 3791 V, and the capillary temperatures was 335 °C with a vaporizer temperature of 350 °C. […] The lower limit of quantitation (LLOQ) for both analytes was determined to be 0.5 ng/mL. […]

Oatp1b2 [5] = biological target: T2, Oatp1b2 (Mus musculus, UniProt Q9JJL3); conditions: in vivo
T2 sequence (Q9JJL3 1-689): T1 sequence (Q9JJL3 1-689)

OATP1B1 = biological target: T3, OATP1B1 (Homo sapiens, UniProt Q9Y6L6); design: method as in ref PMIDs of Table S2 (18321482, 35456528, 28612269, 10997930, 11129729, 22808947, 12844327); conditions: ref PMIDs of Table S2 (18321482, 35456528, 28612269, 10997930, 11129729, 22808947, 12844327); cited from earlier work
T3 construct: expressed in transfected cells; host or cells: HEK293 (ATCC)
T3 sequence (Q9Y6L6 1-691): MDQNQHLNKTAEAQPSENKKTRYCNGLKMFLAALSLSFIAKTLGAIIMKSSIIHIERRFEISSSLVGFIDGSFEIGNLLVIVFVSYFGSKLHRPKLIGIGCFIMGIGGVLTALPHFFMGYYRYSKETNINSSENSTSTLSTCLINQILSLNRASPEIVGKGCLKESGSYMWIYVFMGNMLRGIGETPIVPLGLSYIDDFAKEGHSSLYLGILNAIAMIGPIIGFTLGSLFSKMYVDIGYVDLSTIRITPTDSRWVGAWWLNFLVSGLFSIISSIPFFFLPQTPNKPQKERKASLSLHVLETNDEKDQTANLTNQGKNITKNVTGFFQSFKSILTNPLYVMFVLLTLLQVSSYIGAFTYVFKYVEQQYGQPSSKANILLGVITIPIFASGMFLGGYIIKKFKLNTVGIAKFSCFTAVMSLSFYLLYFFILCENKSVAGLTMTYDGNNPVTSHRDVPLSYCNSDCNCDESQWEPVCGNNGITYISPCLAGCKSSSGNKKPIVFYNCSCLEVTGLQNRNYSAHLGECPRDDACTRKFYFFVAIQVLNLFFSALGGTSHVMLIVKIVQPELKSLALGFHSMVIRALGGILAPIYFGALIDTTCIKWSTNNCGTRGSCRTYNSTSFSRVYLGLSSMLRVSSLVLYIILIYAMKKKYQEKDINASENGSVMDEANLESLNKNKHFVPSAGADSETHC

Oatp1b2 [6] = biological target: T2, Oatp1b2; test: Untargeted metabolomics of plasma from untreated wild-type and Oatp1b2(−/−) mice; conditions: for Fold of Change KO/WT: plasma of untreated Oatp1b2-deficient (KO) vs wild-type (WT) mice, semi-quantitative, positive = higher in KO, n = 6 per group; for Mean value KO: plasma of untreated Oatp1b2-deficient mice; for Mean value KO / Mean value WT: raw area counts rescaled to median = 1; for Mean value WT: plasma of untreated wild-type mice

Row | Compound | Cmax [3] | Fold of Change KO/WT (Oatp1b2 [6]) | Mean value KO (Oatp1b2 [6]) | Mean value WT (Oatp1b2 [6]) | further results
1 | CC(=O)O[C@H]1C(=O)[C@@]2(C)[C@H]([C@H](OC(=O)c3ccccc3)[C@]3(O)C[C@H](OC(=O)[C@H](O)[C@@H](NC(=O)c4ccccc4)c4ccccc4)C(C)=C1C3(C)C)[C@]1(OC(C)=O)CO[C@@H]1C[C@@H]2O [Paclitaxel, paclitaxel] | 9.6 µM |  |  |  | Effect on circulating levels of CDCA-24G [1]: transient, statistically significant increase; Effect on plasma levels of CDCA-24G (OATP1B [2]): elevated; IC50 (OATP1B3): 0.5 µM
2 | coproporphyrin I [CP-I] |  |  |  |  | Observed changes in plasma levels in Oatp1a/1b(−/−), OATP1B1(tg) or OATP1B3(tg) mice vs wild type, compared with CDCA-24G (Oatp1a/1b): much more modest
3 | coproporphyrin III [CP-III] |  |  |  |  | Observed changes in plasma levels in Oatp1a/1b(−/−), OATP1B1(tg) or OATP1B3(tg) mice vs wild type, compared with CDCA-24G (Oatp1a/1b): much more modest
4 | CO[C@H]1C(=O)[C@]2(C)[C@@H](OC)C[C@H]3OC[C@@]3(OC(C)=O)[C@H]2[C@H](OC(=O)c2ccccc2)[C@]2(O)C[C@H](OC(=O)[C@H](O)[C@@H](NC(=O)OC(C)(C)C)c3ccccc3)C(C)=C1C2(C)C [Cabazitaxel, cabazitaxel] | 0.193 µM |  |  |  | Effect on plasma levels of CDCA-24G (OATP1B [4]): not associated with elevated plasma levels; Effect on plasma levels of GCDCA-S (OATP1B [4]): not associated with elevated plasma levels
5 | C[N+](C)(C)[C@@H](Cc1cnc[nH]1)C(=O)[O-] [histidine betaine (hercynine)] |  |  |  |  | Fold of Change KO/WT (Oatp1b2 [5]): 1.31; Mean value KO (Oatp1b2 [5]): 1.09; Mean value WT (Oatp1b2 [5]): .830
6 | CO[C@H]1/C=C/O[C@@]2(C)Oc3c(C)c(O)c4c(O)c(c(/C=N/N5CCN(C)CC5)c(O)c4c3C2=O)NC(=O)/C(C)=C\C=C\[C@H](C)[C@H](O)[C@@H](C)[C@@H](O)[C@@H](C)[C@H](OC(C)=O)[C@@H]1C [Rifampin, rifampin] | 29 µM |  |  |  | Effect on circulating levels of CDCA-24G [1]: transient, statistically significant increase; IC50 (OATP1B1): 1.5 µM; IC50 (OATP1B3): 2.6 µM
7 | C[C@H](CCC(=O)O)[C@H]1CC[C@H]2[C@@H]3[C@H](O)[C@H](O)[C@@H]4C[C@H](O)CC[C@]4(C)[C@H]3CC[C@]12C [hyocholate] |  | 5.64 | 1.41 | .251 | 
8 | CCCCCCCC/C=C\CCCCCCCC(=O)O[C@H](COC(=O)CCCCCCCCCCCCCCCCC)COP(=O)([O-])OCC[N+](C)(C)C [1-stearoyl-2-oleoyl-GPC (18:0/18:1)] |  | 1.20 | 1.07 | .892 | 
9 | CCC(C)C(O)C(=O)O (centres unmarked) [2-hydroxy-3-methylvalerate] |  | 3.15 | 2.33 | .738 | 
10 | sphingomyelin (d18:2/16:0, d18:1/16:1) |  |  |  | .940 | 
